According to paper PMC3913610, “Antitumor Activity and Induction of TP53-Dependent Apoptosis toward Ovarian Clear Cell Adenocarcinoma by the Dual PI3K/mTOR Inhibitor DS-7423” (PLoS ONE, 2014):

Columns and labels:
[1] = system: cleavage of PARP in OVMANA cells; test: Cleaved PARP immunoblotting; format: cell-based
Excerpt: (§1) Antibodies to total Akt, phosphorylation of Akt (p-Akt) (Ser473, Thr308), p-GSK3beta (Ser9), total S6, p-S6 (Ser235/236, Ser 240/244), p-4EBP1 (Thr37/46), p-FOXO1 (Thr24), p-FOXO3a (Thr32), p-MDM2 (Ser 166), p-TP53 (Ser15), cleaved-PARP, and PARP (Cell Signaling Technology, Beverly, MA), beta-actin (Sigma-Aldrich, St. Louis, MO), TP53 (Santa Cruz, CA, USA) and p-TP53 (Ser46) (Calbiochem, Billerica, MA) were used for immunoblotting, as recommended by the manufacturers. Signals were detected using BioRAD western blotting systems (BioRAD, Hercules, CA) with the detection reagents ECL advance and ECL select (GE Healthcare, Piscataway, NJ).

PI3Kβ = PI3Kβ (Homo sapiens, UniProt P42338); test: PI3Kβ inhibition; format: biochemical
[2] = biological target: Mixed Lineage Kinase 1 (MLK1) (Homo sapiens, UniProt P80192); test: Kinase selectivity panel, MLK1; format: biochemical; conditions: MLK1, relevant activity observed
Mixed Lineage Kinase 1 (MLK1), sequence (P80192 whole entry, species assumed): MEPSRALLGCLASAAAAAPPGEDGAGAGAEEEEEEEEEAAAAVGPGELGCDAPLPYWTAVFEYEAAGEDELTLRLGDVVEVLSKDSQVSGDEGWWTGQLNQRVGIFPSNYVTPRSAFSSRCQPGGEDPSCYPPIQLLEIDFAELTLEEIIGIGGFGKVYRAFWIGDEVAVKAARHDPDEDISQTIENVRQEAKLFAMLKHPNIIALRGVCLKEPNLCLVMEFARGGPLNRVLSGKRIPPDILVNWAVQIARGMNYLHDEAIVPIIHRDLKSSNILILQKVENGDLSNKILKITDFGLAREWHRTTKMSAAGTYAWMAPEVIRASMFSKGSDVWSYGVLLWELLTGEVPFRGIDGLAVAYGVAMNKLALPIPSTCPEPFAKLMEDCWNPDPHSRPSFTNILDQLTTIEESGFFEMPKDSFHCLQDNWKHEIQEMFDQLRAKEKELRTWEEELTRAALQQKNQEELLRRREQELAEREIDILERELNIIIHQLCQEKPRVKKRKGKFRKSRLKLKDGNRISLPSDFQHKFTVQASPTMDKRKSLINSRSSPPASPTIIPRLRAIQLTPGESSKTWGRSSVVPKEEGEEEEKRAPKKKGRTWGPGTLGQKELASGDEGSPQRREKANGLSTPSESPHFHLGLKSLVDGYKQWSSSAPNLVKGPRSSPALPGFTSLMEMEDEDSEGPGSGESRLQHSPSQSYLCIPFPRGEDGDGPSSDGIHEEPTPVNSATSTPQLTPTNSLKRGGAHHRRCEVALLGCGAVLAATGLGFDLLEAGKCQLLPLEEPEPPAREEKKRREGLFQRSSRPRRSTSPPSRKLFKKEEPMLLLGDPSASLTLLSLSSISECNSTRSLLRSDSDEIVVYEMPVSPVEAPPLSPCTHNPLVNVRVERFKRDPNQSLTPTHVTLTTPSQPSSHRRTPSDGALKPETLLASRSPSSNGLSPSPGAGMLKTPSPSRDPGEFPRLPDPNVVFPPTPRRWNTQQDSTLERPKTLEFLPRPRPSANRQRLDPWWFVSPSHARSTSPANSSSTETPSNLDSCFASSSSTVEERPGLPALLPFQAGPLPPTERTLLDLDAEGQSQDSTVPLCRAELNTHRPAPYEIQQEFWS

PI3Kα = PI3Kα (Homo sapiens, UniProt P42336); test: PI3Kα inhibition; format: biochemical
mTOR = mTOR (Homo sapiens, UniProt P42345); test: mTOR inhibition; format: biochemical
[3] = biological target: Never-In-Mitosis Gene A (NIMA)-related kinase 2 (NEK2) (Homo sapiens, UniProt P51955); test: Kinase selectivity panel, NEK2; format: biochemical; conditions: NEK2, relevant activity observed
Never-In-Mitosis Gene A (NIMA)-related kinase 2 (NEK2), sequence (P51955 whole entry, species assumed): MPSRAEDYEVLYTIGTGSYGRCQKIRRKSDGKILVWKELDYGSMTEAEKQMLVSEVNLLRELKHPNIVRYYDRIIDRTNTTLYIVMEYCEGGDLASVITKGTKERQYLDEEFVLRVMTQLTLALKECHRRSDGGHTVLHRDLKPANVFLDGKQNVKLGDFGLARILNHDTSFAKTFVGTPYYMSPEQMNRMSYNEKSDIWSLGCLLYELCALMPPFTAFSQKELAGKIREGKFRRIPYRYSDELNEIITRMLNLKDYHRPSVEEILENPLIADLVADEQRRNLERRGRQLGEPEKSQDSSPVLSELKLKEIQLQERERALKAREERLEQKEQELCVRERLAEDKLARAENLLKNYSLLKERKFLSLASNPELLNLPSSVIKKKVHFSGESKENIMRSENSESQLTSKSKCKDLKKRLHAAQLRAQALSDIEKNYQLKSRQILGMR

seven OSA lines = test: Proliferation (MTT/WST-8) assay, OSA panel; format: cell-based; conditions: four of seven OSA cell lines
Experimental: (§2) Assays of the suppression of cell proliferation were performed with the Cell Counting Kit-8 using the tetrazolium salt WST-8 [2-(2-methoxy-4-nitrophenyl)-3-(4-nitrophenyl)-5-(2,4-disulfophenyl)-2H-tetrazolium, monosodium salt] (Dojindo, Tokyo, Japan) for the methyl thiazolyl tetrazolium (MTT) assay. […] Proliferation was quantified by monitoring the changes in the absorbance at 450 nm, which were normalized relative to the absorbance of cell cultures treated with DMSO alone.

OCCA cells = test: Cell cycle analysis (flow cytometry), OCCA panel; format: cell-based; conditions: 48 h
Experimental: Cells (5×10^5) were seeded in 60-mm dishes and treated with DS-7423 for 48 h. Floating and adherent cells were collected by trypsinization and washed twice with phosphate buffer saline (PBS). Cells were resuspended in cold 70% ethanol and maintained at 4°C overnight. After being washed twice with PBS, cells were incubated in RNase A (0.25 mg/mL) (Sigma) for 30 min at 37°C, followed by staining with propidium iodide (PI; 50 μg/mL) (Sigma) at 4°C for 30 min in the dark. Cells were then analyzed using flow cytometry (BD FACS Calibur HG, Franklin Lakes, NJ). Cell cycle distribution was analyzed using CELL Quest pro ver. 3.1. […]. All experiments were repeated three times.

PI3Kδ = PI3Kδ (Homo sapiens, UniProt O00329); test: PI3Kδ inhibition; format: biochemical
PI3Kδ, sequence (O00329 whole entry): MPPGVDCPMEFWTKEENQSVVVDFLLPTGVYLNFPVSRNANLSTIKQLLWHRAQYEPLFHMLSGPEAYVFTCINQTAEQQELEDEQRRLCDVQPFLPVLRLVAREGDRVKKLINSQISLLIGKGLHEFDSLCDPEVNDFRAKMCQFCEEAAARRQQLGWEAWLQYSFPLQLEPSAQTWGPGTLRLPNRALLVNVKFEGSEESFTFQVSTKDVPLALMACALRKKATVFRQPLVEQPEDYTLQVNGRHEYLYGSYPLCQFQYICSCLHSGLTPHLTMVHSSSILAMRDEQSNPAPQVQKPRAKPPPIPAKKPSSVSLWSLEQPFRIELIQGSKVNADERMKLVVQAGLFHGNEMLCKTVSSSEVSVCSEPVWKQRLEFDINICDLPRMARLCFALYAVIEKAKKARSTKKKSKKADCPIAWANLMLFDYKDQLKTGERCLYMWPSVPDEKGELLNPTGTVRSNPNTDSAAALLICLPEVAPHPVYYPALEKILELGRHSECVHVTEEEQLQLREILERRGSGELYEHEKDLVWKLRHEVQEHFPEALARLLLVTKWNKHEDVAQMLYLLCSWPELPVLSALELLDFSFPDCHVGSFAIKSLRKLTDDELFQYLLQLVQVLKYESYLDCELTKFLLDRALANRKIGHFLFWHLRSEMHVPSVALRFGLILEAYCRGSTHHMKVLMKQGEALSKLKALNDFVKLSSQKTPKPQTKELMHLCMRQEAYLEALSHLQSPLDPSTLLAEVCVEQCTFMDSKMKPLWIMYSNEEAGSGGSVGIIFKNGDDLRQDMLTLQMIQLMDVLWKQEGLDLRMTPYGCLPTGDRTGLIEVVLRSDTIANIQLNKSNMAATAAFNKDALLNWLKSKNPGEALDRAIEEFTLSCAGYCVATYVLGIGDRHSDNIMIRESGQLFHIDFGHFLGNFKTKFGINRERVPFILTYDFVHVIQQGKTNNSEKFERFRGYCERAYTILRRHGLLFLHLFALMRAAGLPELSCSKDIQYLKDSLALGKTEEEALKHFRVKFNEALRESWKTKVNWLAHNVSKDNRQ
PI3Kδ, sequence (P27986 whole entry partner): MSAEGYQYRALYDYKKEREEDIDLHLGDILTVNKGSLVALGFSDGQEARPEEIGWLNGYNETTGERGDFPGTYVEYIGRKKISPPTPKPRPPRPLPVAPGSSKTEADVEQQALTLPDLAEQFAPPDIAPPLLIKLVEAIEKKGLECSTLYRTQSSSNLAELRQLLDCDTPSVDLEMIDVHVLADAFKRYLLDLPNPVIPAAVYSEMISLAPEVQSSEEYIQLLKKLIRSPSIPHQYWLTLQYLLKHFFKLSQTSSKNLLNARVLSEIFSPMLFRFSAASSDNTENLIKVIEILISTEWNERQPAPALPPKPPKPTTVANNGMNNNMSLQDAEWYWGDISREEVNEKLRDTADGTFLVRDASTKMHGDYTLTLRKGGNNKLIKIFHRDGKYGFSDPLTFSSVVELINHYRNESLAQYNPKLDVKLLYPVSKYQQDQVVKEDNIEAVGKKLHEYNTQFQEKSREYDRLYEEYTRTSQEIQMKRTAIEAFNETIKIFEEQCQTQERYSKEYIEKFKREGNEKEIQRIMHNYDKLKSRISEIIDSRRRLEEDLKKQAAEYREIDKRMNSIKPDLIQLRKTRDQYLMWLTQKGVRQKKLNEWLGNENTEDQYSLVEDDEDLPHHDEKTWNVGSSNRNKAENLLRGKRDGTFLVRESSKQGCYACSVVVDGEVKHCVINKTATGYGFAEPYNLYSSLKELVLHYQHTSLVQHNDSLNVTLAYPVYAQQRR

PI3Kγ = PI3Kγ (Homo sapiens, UniProt P48736); test: PI3Kγ inhibition; format: biochemical
PI3Kγ, sequence (P48736 whole entry): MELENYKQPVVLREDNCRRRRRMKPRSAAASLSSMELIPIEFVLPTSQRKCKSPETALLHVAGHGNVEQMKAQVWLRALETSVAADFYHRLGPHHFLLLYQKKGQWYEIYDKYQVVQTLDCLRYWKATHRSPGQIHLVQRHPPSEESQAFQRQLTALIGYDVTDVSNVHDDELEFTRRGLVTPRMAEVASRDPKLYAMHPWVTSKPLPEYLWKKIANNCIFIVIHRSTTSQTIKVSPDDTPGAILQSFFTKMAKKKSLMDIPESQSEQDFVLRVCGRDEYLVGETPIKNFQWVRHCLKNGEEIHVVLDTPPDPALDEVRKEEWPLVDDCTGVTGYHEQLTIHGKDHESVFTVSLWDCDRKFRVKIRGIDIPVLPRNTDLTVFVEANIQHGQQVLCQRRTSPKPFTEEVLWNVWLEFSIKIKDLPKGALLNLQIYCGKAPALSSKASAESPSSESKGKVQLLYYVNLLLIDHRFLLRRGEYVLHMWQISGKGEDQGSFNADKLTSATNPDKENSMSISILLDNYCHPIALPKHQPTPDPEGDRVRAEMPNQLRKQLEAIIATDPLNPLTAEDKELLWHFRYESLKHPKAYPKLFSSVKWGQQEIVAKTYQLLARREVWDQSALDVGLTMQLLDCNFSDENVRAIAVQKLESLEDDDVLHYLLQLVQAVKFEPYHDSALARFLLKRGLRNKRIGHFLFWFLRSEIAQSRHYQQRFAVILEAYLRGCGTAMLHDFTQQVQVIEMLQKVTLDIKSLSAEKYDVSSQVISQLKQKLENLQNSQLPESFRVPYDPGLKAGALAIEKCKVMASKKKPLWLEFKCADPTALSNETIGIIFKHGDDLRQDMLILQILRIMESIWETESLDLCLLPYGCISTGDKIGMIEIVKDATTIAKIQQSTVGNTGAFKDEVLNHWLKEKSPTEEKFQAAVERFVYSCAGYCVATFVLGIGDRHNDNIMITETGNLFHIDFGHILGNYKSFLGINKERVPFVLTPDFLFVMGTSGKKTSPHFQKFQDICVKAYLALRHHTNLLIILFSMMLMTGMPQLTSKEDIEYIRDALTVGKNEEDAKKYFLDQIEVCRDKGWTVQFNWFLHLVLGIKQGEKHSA

[4] = system: p-MDM2, p-TP53 in OVMANA cells; test: Immunoblotting of p-MDM2 and p-TP53; format: cell-based
Excerpt: as §1

OCCA cell lines = test: Apoptosis by annexin-V FITC/PI staining, OCCA panel; format: cell-based
Experimental: (§3) Cells (5×10^5) were cultured in 60-mm plates for 24 h before treatment with either DMSO (control), and 156 nM DS-7423, or 2,500 nM DS-7423 for 48 h. Cells were trypsinized, washed twice with PBS, and then analyzed after double staining with annexin-V fluorescein isothiocyanate (FITC) (Abcam, Cambridge, MA) and PI. The apoptotic cell population was analyzed using flow cytometry. All experiments were performed three times.

nine OCCA cell lines = test: Proliferation (MTT/WST-8) assay, OCCA panel; format: cell-based; conditions: 156 nM, 72 h
Experimental: as §2

OVISE cells = test: Apoptosis by annexin-V FITC/PI staining; format: cell-based
Experimental: as §3
Cells were plated at approximately 30% confluence in 100-mm plates and incubated for 24 h before transfection with small interfering RNA (siRNA) duplexes at the concentrations indicated, using Lipofectamine […] RNAiMAX (Invitrogen, Carlsbad, CA) and Opti-MEM medium (Life Technologies, Grand Island, NY). The siRNAs specific for TP53 were purchased from Invitrogen. A negative control kit was used as a control (Invitrogen, Carlsbad, CA).

227 kinases = test: Kinase selectivity panel; format: biochemical; conditions: 227 kinases tested, except MLK1 and NEK2

`CC(=O)N1CCN(c2nc3c(N4CCOCC4)nc(-c4cnc(N)nc4)nc3n2CC(F)(F)F)C[C@H]1C` [DS-7423] was tested, and the “concentration at which induction of cleaved-PARP was observed” value ([1]; 4 h, dose-dependent up to 2,500 nM) was 39 nM, the “time to cleavage of PARP” value ([1]; OVMANA cells without mutations in TP53, 156 nM) was ≤ 2 h and the IC50 (PI3Kβ) was 1140 nM. For the same compound, the IC50 [2] was < 200 nM, the IC50 (PI3Kα) was 15.6 nM and the IC50 (mTOR) was 34.9 nM. The IC50 [3] was < 200 nM, the IC50 (seven OSA lines) was > 100 nM and the “size of the S-phase population” value (OCCA cells; OCCA cells, change weak in ES-2) was “decreased”. For the same compound, the “sizes of sub-G1 populations” value (OCCA cells; six of the nine cell lines) was “increased in a dose-dependent manner”, the IC50 (PI3Kδ) was 262 nM and the IC50 (PI3Kγ) was 249 nM. The “doses clearly inducing p-TP53 (Ser46), not p-TP53 (Ser15)” value ([4]; OVMANA cells) was 156–2,500 nM, the “level of p-MDM2” value ([4]; dose-dependent) was “reduced” and the “apoptosis (annexin-V FITC/PI)” value (OCCA cell lines; 156 nM, 48 h, five of the six cell lines that lacked mutations in TP53) was 4–12%. The “apoptosis (annexin-V FITC/PI)” value (OCCA cell lines; 2,500 nM, 48 h, five cell lines without TP53 mutations) was 10–16%, the “ratio of apoptotic cells” value (OCCA cell lines; even at high concentrations) was “less than 20%” and the “apoptosis (annexin-V FITC/PI)” value (OCCA cell lines; three cell lines with TP53 mutations, any of the doses tested) was ≤ 5%. The “inhibition of cell growth” value (nine OCCA cell lines) was 70%–97%, the “percentage of apoptotic cells compared with rapamycin” value (OVISE cells; OVISE cells) was “significantly higher” and the “apoptotic cell death after knockdown of TP53” value (OVISE cells; OVISE, TP53 siRNA, 156 or 2,500 nM, 48 h) was “rescued”. For the same compound, the “Relevant activity (IC50 <200 nM)” value (227 kinases) was “not observed”.
